US20110015181A1, “ALKYLAMINOPYRIDINE DERIVATIVE” (priority 2008, published 2011)

Legend:
[1] = target: human ERG (hERG) (Homo sapiens, UniProt Q12809); assay: Affinity for human ERG (hERG); format: binding
Procedure: In addition, the affinities of compounds according to the present invention and compounds described in Patent Document 7 described above for human ERG (hERG) were examined. This examination method was carried out according to the method described in documents (for example, Japanese Unexamined Patent Application Publication No. 2004-512268).

[2] = target: T1, human NPY Y1 receptor (Homo sapiens, UniProt P25929); assay: NPY binding inhibition test ([125I] peptide YY binding to membranes of NPY Y1 receptor expression cells); conditions: membrane of CHO-K1 cells expressing human NPY Y1 receptor, 25° C., 2 hours; read-out: IC50 against specific [125I] peptide YY binding
T1 construct: expressed in transfected cells; host or cells: CHO-K1 NFAT β-Lactamase (Aurora)
T1 sequence (P25929 1-384): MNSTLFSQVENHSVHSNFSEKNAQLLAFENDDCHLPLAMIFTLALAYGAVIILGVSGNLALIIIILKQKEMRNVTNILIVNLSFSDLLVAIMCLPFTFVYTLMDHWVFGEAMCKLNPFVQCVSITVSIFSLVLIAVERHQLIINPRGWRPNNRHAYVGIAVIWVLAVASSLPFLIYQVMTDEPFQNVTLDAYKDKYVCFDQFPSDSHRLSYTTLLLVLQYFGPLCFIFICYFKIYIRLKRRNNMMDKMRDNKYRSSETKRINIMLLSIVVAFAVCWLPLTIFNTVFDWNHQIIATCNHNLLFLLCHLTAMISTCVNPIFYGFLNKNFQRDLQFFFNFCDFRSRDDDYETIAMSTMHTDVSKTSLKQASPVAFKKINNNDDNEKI
Procedure: A cDNA sequence encoding a human NPY Y1 receptor [Accession No. L07615] was cloned into expression vectors pEF1x (made by Invitrogen Inc.). The obtained expression vectors were transfected to host cells CHO-K1 NFAT β-Lactamase (Aurora) by cationic lipid method [see Proceedings of the National Academy of Sciences of the United States of America, 84: 7413 (1987)] to give NPY Y1 receptor expression cells.
A membrane sample prepared from the cells which expressed the NPY Yl receptor was incubated together with a test compound and [^125I] peptide YY (manufactured by Amersham) (20,000 cpm) in an assay buffer (HBSS buffer (pH 7.4) containing 20 mM HEPES, 0.5% BSA, 1 mM phenylmethylsulfonylfluoride and 0.1% bacitracin) at 25° C. for 2 hours, then filtered through a glass filter GF/C, and washed with 20 mM HEPES buffer (pH 7.4), followed by measuring the radioactivity of the cake on the glass filter with γ counter. Nonspecific binding was measured in the presence of 1 μM peptide YY and a 50% Inhibitory Concentration (IC50) of the test compound against specific [^125I] peptide YY binding was determined [Endocrinology, 131: 2090 (1992)].

[3] = compounds described in Patent Document 7 (WO 97/34873)
[4] = compounds according to the present invention

Sequence of human ERG (hERG) (Q12809 whole entry): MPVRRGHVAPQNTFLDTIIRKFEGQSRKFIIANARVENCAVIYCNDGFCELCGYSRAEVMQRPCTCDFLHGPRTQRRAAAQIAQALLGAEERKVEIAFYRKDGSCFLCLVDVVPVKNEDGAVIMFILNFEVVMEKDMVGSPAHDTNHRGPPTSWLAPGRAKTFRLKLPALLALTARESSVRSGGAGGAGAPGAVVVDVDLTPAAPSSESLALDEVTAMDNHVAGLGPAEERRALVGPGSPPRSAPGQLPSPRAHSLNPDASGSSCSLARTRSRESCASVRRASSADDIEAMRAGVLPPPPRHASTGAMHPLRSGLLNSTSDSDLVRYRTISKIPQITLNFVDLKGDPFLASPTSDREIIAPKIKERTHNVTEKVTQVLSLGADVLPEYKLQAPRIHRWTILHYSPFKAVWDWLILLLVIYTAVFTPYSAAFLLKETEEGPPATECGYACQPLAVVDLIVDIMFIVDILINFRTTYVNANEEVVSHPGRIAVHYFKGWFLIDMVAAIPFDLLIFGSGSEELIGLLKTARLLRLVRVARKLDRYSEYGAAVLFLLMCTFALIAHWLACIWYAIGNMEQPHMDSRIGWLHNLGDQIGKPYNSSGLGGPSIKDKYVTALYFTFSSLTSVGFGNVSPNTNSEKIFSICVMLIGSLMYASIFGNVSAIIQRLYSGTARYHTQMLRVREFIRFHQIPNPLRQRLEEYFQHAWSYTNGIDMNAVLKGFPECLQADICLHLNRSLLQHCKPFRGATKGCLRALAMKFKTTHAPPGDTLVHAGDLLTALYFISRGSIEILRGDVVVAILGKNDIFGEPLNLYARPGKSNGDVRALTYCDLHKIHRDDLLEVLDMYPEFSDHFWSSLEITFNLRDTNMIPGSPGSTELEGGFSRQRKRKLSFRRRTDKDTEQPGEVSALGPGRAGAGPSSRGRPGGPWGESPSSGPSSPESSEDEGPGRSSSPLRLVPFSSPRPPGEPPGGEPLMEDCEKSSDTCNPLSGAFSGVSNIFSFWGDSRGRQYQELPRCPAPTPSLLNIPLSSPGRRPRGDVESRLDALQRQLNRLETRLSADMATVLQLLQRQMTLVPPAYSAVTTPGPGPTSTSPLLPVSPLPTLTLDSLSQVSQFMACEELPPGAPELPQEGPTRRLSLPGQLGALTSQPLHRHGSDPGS

Compound | Activity for Human ERG [1, 3] [µM] | IC50 [2] [nM] | Activity for Human ERG [1, 4] [µM]
CCc1nnc(SCc2cc(N3CCOCC3)cc(NCc3cccc(OC)c3)n2)s1 [reference compound] | 0.028 | – | –
O=S1(=O)CCN(c2cc(CSc3nc4c(o3)CCCC4)nc(NCC(F)(F)F)c2)CC1 [Example 12] | – | 27.5 | 14
CCc1nnc(SCc2cc(N3CCOCC3)cc(NCc3cccc(NC(C)=O)c3)n2)s1 [reference compound] | 0.57 | – | –
Cc1nc(SCc2cc(N3CCC(F)(F)CC3)cc(NCC(F)(F)F)n2)nn1C [Example 5, 4-(4,4-difluoro-1-piperidinyl)-6-{[(1,5-dimethyl-1H-1,2,4-triazol-3-yl)thio]methyl}-N-(2,2,2-trifluoroethyl)-2-pyridinamine] | – | 17 | 16
Cc1nc(SCc2cc(N3CCSCC3)cc(NCC#N)n2)n(C)c1C [Example 34, [(4-(4-thiomorpholinyl)-6-{[(1,4,5-trimethyl-1H-imidazol-2-yl)thio]methyl}-2-pyridinyl)amino]acetonitrile] | – | 6.5 | 7.3
CCc1nnc(SCc2cc(N3CCOCC3)cc(NCc3cccc(O)c3)n2)s1 [reference compound] | 0.16 | – | –
CCc1oc(CC(O)c2cc(N3C4CCC3COC4)cc(NCC(F)(F)F)n2)nc1C (single isomer, unassigned) [Example 21] | – | 26 | 14
Cc1cc(CCc2cc(N3CCC(F)(F)CC3)cc(NCC#N)n2)nn1C [Example 32, ({4-(4,4-difluoro-1-piperidinyl)-6-[2-(1,5-dimethyl-1H-pyrazol-3-yl)ethyl]-2-pyridinyl}amino)acetonitrile] | – | 10 | 11
Cc1nc(SCc2cc(N3C4CCC3COC4)cc(NCC#N)n2)sc1C [Example 1] | – | 16 | 33
Cc1cc(SCc2cc(N3CCC(F)(F)CC3)cc(NCC(F)(F)F)n2)nn1C [Example 9, 4-(4,4-difluoro-1-piperidinyl)-6-{[(1,5-dimethyl-1H-pyrazol-3-yl)thio]methyl}-N-(2,2,2-trifluoroethyl)-2-pyridinamine] | – | 2.2 | 5.3
Cc1nc(SCc2cc(N3CCC(F)(F)CC3)cc(NCCS(C)(=O)=O)n2)oc1C [Example 48, 4-(4,4-difluoro-1-piperidinyl)-6-{[(4,5-dimethyl-1,3-oxazol-2-yl)thio]methyl}-N-[2-(methylsulfonyl)ethyl]-2-pyridinamine] | – | 16 | 5.9
Cc1nc(SCc2cc(N3CCCCCC3)cc(NCC(F)(F)F)n2)cn1C [Example 13, 4-(1-azepanyl)-6-{[(1,2-dimethyl-1H-imidazol-4-yl)thio]methyl}-N-(2,2,2-trifluoroethyl)-2-pyridinamine] | – | 44 | 8.2
COC(=O)CNc1cc(N2C3CCC2COC3)cc(CSc2nc(C)c(C)s2)n1 [Example 38, {[6-{[(4,5-dimethyl-1,3-thiazol-2-yl)thio]methyl}-4-(3-oxa-8-azabicyclo[3,2,1]octo-8-yl)-2-pyridinyl]amino}acetic acid methyl ester] | – | 2.8 | 7.4
